Assay results taken from ChEMBL document CHEMBL2407046, “Synthesis of 2α-heteroarylalkyl active vitamin d3 with therapeutic effect on enhancing bone mineral density in vivo” (ACS Med Chem Lett, 2013).
Each block holds one compound with its values, some of them ahead of it.

How the values were obtained:
Vitamin D3 receptor = biological target: T1, Vitamin D3 receptor (Homo sapiens, UniProt P11473); experiment: Transactivation of VDR-mediated osteocalcin promoter in human HOS/SF cells after 24 hrs by luciferase reporter gene assay; format: cell-based
T1 sequence (P11473 whole entry): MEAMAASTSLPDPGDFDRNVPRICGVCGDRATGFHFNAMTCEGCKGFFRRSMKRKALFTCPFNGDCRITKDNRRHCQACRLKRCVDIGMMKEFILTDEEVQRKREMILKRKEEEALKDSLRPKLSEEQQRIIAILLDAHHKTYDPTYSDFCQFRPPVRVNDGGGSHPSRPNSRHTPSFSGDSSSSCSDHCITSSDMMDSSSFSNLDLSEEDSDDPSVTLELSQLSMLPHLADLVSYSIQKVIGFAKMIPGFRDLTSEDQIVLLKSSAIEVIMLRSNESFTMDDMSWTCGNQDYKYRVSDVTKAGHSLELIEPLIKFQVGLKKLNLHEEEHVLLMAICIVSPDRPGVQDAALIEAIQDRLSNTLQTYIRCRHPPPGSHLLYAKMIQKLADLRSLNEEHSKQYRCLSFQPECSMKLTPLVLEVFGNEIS

Rattus norvegicus [1] = experiment: Toxicity in ovariectomized Sprague-Dawley rat osteoporosis model assessed as increase in serum Ca level at 0.02 mg/kg/day administered 5 times a week for 4 weeks measured 24 hrs post last dose (reference value: 9.25 +/- 0.11 mg/dL); format: organism-based; conditions: in vivo
Rattus norvegicus [2] = experiment: Antiosteoporotic activity in ovariectomized Sprague-Dawley rat osteoporosis model assessed as increase in bone mineral density in spine at 0.007 mg/kg/day administered 5 times a week for 4 weeks measured 24 hrs post last dose by dual X-ray absorption meter (reference value: 0.209 +/- 0.011 g/cm'2); format: functional
Rattus norvegicus [3] = experiment: Antiosteoporotic activity in ovariectomized Sprague-Dawley rat osteoporosis model assessed as increase in bone mineral density in spine at 0.02 mg/kg/day administered 5 times a week for 4 weeks measured 24 hrs post last dose by dual X-ray absorption meter (reference value: 0.209 +/- 0.011 g/cm'2); format: functional
Rattus norvegicus [4] = experiment: Toxicity in ovariectomized Sprague-Dawley rat osteoporosis model assessed as increase in serum Ca level at 0.007 mg/kg/day administered 5 times a week for 4 weeks measured 24 hrs post last dose (reference value: 9.25 +/- 0.11 mg/dL); format: organism-based; conditions: in vivo
Rattus norvegicus [5] = experiment: Toxicity in ovariectomized Sprague-Dawley rat osteoporosis model assessed as increase in serum Ca level at 0.1 mg/kg/day administered 5 times a week for 4 weeks measured 24 hrs post last dose (reference value: 9.14 +/- 0.24 mg/dL); format: organism-based; conditions: in vivo
Rattus norvegicus [6] = experiment: Toxicity in ovariectomized Sprague-Dawley rat osteoporosis model assessed as increase in serum Ca level at 0.025 mg/kg/day administered 5 times a week for 4 weeks measured 24 hrs post last dose (reference value: 9.14 +/- 0.24 mg/dL); format: organism-based; conditions: in vivo
Rattus norvegicus [7] = experiment: Antiosteoporotic activity in ovariectomized Sprague-Dawley rat osteoporosis model assessed as increase in bone mineral density in spine at 0.1 mg/kg/day administered 5 times a week for 4 weeks measured 24 hrs post last dose by dual X-ray absorption meter (reference value: 0.209 +/- 0.019 g/cm'2); format: functional
Rattus norvegicus [8] = experiment: Antiosteoporotic activity in ovariectomized Sprague-Dawley rat osteoporosis model assessed as increase in bone mineral density in spine at 0.025 mg/kg/day administered 5 times a week for 4 weeks measured 24 hrs post last dose by dual X-ray absorption meter (reference value: 0.209 +/- 0.019 g/cm'2); format: functional

EC50 (Vitamin D3 receptor): 0.01 nM
Compound: C=C1/C(=C\C=C2/CCC[C@]3(C)[C@@H]([C@H](C)CCCC(C)(C)O)CC[C@@H]23)C[C@@H](O)[C@H](CCn2ncnn2)[C@@H]1O
Activity (Rattus norvegicus [1]): 9.66 mg/dL | Activity (Rattus norvegicus [2]): 0.214 g/cm2 | Activity (Rattus norvegicus [3]): 0.223 g/cm2 | Activity (Rattus norvegicus [4]): 9.41 mg/dL

EC50 (Vitamin D3 receptor): 0.29 nM
Compound: C=C1/C(=C\C=C2/CCC[C@]3(C)[C@@H]([C@H](C)CCCC(C)(C)O)CC[C@@H]23)C[C@@H](O)[C@H](CCn2cnnn2)[C@@H]1O

EC50 (Vitamin D3 receptor): 0.15 nM
Compound: C=C1/C(=C\C=C2/CCC[C@]3(C)[C@@H]([C@H](C)CCCC(C)(C)O)CC[C@@H]23)C[C@@H](O)[C@H](CCn2cncn2)[C@@H]1O

EC50 (Vitamin D3 receptor): 0.044 nM
Compound: C=C1/C(=C\C=C2/CCC[C@]3(C)[C@@H]([C@H](C)CCCC(C)(C)O)CC[C@@H]23)C[C@@H](O)[C@H](CCn2nccn2)[C@@H]1O

EC50 (Vitamin D3 receptor): 0.21 nM
Compound: C=C1/C(=C\C=C2/CCC[C@]3(C)[C@@H]([C@H](C)CCCC(C)(C)O)CC[C@@H]23)C[C@@H](O)[C@H](CCn2ccnn2)[C@@H]1O

EC50 (Vitamin D3 receptor): 0.68 nM
Compound: C=C1/C(=C\C=C2/CCC[C@]3(C)[C@@H]([C@H](C)CCCC(C)(C)O)CC[C@@H]23)C[C@@H](O)[C@H](CCn2ccnc2)[C@@H]1O

Compound: C=C1/C(=C\C=C2/CCC[C@]3(C)[C@@H]([C@H](C)CCCC(C)(C)O)CC[C@@H]23)C[C@@H](O)C[C@@H]1O [CALCITRIOL]
Activity (Rattus norvegicus [5]): 10.35 mg/dL | Activity (Rattus norvegicus [6]): 10.14 mg/dL | Activity (Rattus norvegicus [7]): 0.228 g/cm2 | Activity (Rattus norvegicus [8]): 0.218 g/cm2
